Consider 2 compounds from patent US20150374649A1, “Treatment of Severe Hypertriglyceridemia” (CymaBay Therapeutics, Inc, priority 2014, published 2015).

Series [1] relates to dyslipidemic overweight patients (mixed dyslipidemia). The settings on record: cited from earlier work.
Another series deals with T1, PPARα (Homo sapiens, UniProt Q07869).
T1 sequence (Q07869 1-468): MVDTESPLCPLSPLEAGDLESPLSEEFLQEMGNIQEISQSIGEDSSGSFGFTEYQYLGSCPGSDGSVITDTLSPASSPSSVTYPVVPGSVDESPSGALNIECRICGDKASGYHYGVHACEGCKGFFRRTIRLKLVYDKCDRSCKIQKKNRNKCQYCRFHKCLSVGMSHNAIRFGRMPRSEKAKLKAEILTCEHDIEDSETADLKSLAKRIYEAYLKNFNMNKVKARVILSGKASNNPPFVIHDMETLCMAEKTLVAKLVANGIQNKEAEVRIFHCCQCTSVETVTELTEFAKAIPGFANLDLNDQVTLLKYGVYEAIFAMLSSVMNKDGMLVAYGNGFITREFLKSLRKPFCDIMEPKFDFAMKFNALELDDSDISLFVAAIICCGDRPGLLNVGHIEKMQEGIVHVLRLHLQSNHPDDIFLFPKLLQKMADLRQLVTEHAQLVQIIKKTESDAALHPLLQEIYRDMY
Kind of series: Specificity for PPARδ compared with PPARα. The class given is biochemical. The following applies: PPARδ versus PPARα.

The subject of series [2] is adult subjects with severe hypertriglyceridemia. The series is described as follows: 12-week open label dose-escalation study in severe hypertriglyceridemia. It is filed as in vivo, human. As to the method: The study is a 12-week interventional, open label (single blind), dose-escalation study using adult subjects (for example 30, preferably with at least one-fourth the number having Type I hyperlipoproteinemia and at least one-fourth the number having Type V hyperlipoproteinemia) with severe hypertriglyceridemia (fasting TG levels of at least 1000 mg/dL), on stable therapy (fibrates, niacin, O3FA) or refractory to such therapy. Exclusion criteria include stage 3 or 4 heart failure, uncontrolled diabetes mellitus in the month before screening, use of corticosteroids in the month before screening, estrogen treatments (contraceptive or hormone replacement) unless on a stable dose in the two months before screening, a history of pancreatic disease during the six months before screening, and current apheresis treatments. Subjects are assessed for fasting TGs and other lipids at baseline.

The subject of series [3] is hypertriglyceridemia patients. The following applies: cited from earlier work.

Each structure is given as a SMILES string.

Consider `CCO[C@H](COc1ccc(C(F)(F)F)cc1)CSc1ccc(OCC(=O)O)c(C)c1` [MBX-8025, (R)-2-(4-((2-ethoxy-3-(4-(trifluoromethyl)phenoxy)propyl)thio)-2-methylphenoxy)acetic acid], for which, in series [1] (50 mg/day and 100 mg/day), the “reduction of TGs over the total population treated” value is recorded as 32%. For the same compound, in series [1] (compared to placebo, 50 or 100 mg once daily alone and in combination with ATV 20 mg, 8 weeks, P<0.05), the “reduction of TGs” value is on record as 26-30%. In series [1] (homeostatic model assessment-insulin resistance, fasting plasma glucose, insulin lowered), the insulin sensitivity entry was “increases insulin sensitivity”. Further, in series [1] (in vivo), the “GGT and ALP” value is “lowers GGT and ALP”; the “effect on small dense LDL particles” value was “selectively depletes small dense LDL particles”; the liver enzyme levels entry was “reduced liver enzyme levels”. Further, the “percentage reduction in TGs, tertile with lowest starting TG levels” value in series [1] (starting TG 125-155 mg/dL) was “near zero”. Also, the “percentage reduction in TGs, tertile with highest starting TG levels” value in series [1] (starting TG 279-324 mg/dL) is reported as “over 40%”. The “specificity compared with PPARα” value on PPARα is recorded as greater than 600 fold. Further, the “fasting TGs versus baseline” value in series [2] (50, 100, 200 mg/day orally, four weeks each, reduction increasing with dose) is recorded as “reduction in fasting TGs from baseline”. In series [2] (subjects with SHTG), the “percentage of subjects at risk of acute pancreatitis and associated adverse events” value is recorded as “significantly reduce”.

Take `O=C(O)c1cccnc1` [niacin, pyridine-3-carboxylic acid]: in series [3] (high-dose niacin (at least 1500 mg/day)), the “decrease of TG levels” value was “at least 40%”. Also, the “raise of HDL-C levels” value in series [3] (human, in vivo) is “at least 40%”.
